In assay [1] the target is T1, human TRPV1 heterologously expressed in CHO cells (Homo sapiens, UniProt Q8NER1). The assay is described as follows: binding competition assay with [3H]RTX. To be noted: for fold greater potency than the racemate in binding affinity: 2R vs 2, 3R vs 3; for fold less potent than the racemate in binding affinity: 2S vs 2, 3S vs 3.
The target of assay [2] is T1, human TRPV1 heterologously expressed in CHO cells. Kind of assay: functional 45Ca2+ uptake assay. It counts as cell-based.
Where [3] appears, read: human TRPV1, within ca. x-fold of RTX.

SMILES strings stand for the structures.

T1 sequence (Q8NER1 whole entry): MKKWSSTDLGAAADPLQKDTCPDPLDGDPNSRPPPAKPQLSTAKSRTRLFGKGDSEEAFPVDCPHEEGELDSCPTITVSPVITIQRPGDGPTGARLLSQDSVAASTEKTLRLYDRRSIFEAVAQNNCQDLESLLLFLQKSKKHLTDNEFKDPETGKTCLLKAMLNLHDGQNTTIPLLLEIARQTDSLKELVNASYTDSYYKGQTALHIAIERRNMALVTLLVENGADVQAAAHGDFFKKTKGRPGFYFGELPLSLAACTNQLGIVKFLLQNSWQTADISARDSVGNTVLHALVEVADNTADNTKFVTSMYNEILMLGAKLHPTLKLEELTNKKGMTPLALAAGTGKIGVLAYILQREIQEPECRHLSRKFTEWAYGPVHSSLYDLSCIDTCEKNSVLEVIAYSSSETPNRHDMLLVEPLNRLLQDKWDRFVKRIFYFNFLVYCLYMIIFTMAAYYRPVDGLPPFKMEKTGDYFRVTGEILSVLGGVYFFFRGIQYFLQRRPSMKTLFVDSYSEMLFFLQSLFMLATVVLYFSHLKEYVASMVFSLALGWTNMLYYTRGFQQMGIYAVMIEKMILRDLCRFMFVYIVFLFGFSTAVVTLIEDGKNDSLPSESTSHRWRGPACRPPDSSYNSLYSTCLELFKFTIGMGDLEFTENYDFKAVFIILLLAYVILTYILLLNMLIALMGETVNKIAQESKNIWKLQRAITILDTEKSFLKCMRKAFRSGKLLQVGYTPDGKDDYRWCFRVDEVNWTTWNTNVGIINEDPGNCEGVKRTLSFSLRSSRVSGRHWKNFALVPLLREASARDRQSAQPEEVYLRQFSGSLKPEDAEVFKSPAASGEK

As for `COc1cc(CNC(=S)NC[C@H](COC(=O)C(C)(C)C)Cc2ccc(C(C)(C)C)cc2)ccc1O` [Compound 2R], in assay [1] (hTRPV1), the “fold greater potency than the racemate in binding affinity” value is 2 fold. The “fold greater potency than the racemate 2 in agonism” value in assay [2] (hTRPV1) was 1.5 fold.
As for `COc1cc(CNC(=S)NC[C@@H](COC(=O)C(C)(C)C)Cc2ccc(C(C)(C)C)cc2)ccc1O` [Compound 2S], the “fold less potent than the racemate in binding affinity” value in assay [1] (hTRPV1) was 1.1 fold. For the same molecule, the “fold less potent than 2 in agonism” value in assay [2] (hTRPV1) is reported as 7 fold.
For `COc1cc(CNC(=S)NCC(COC(=O)C(C)(C)C)Cc2ccc(C(C)(C)C)cc2)ccc1O` (stereo not drawn) [Compound 2], the “fold of the potency of RTX in binding affinity” value in assay [1] (setting [3]) is on record as “ca. 5 fold”. Further, the “fold of the potency of RTX in agonism” value in assay [2] (setting [3]) is reported as approximately 1.5 fold.
As to `CC(C)(C)C(=O)OC[C@@H](CNC(=S)NCc1ccc(NS(C)(=O)=O)c(F)c1)Cc1ccc(C(C)(C)C)cc1` [Compound 3R], the “fold greater potency than the racemate in binding affinity” value in assay [1] (hTRPV1) is 1.3 fold. For the same molecule, the “fold greater potency than 3 in antagonism” value in assay [2] (hTRPV1) came to 1.3 fold.
Regarding `CC(C)(C)C(=O)OC[C@H](CNC(=S)NCc1ccc(NS(C)(=O)=O)c(F)c1)Cc1ccc(C(C)(C)C)cc1` [Compound 3S], the “fold less potent than the racemate in binding affinity” value in assay [1] (hTRPV1) is given as 3 fold. The “fold less potency compared to 3 in antagonism” value in assay [2] (hTRPV1) is listed as 1.3 fold.
With `CC(C)(C)C(=O)OCC(CNC(=S)NCc1ccc(NS(C)(=O)=O)c(F)c1)Cc1ccc(C(C)(C)C)cc1` (stereo not drawn) [Compound 3], the “fold less potent than I-RTX in binding affinity” value in assay [1] (hTRPV1) was “ca. 2 fold”. The “fold less potent than I-RTX in antagonism” value in assay [2] (hTRPV1) is reported as approximately 20 fold.
